Measured values reported in patent US6410041B1, “Culturing cells in presence of amphipathic weak bases and/or cations and multiple drug resistance inhibitor containing reserpine” (priority 1998, dated 2002).
In brackets after ≈: the same amount, converted by molar mass. Several values for one entry are separate records, joined by “and”; a condition that tells them apart may be missing. Identical values can stand only once. Like-named read-outs stand apart in the source and are kept apart here.

Assays:
S. aureus = test: MICs of antimicrobials with small molecule MDR inhibitor (I) and high pH; format: cell-based, Staphylococcus aureus; details: for Potentiation factor (pH 7/(pH 9 + I)): pH 7 vs pH 9 + I
Procedure: (§1) Determination of minimal inhibitory concentrations (MICs). MICs were determined by serial two-fold dilution of antimicrobials in Mueller-Hinton broth containing chloramphenicol ([…]). […] Around 10^5 cells were inoculated in 1 ml of medium for the test. MICs were read after 18 hours of incubation at 37 C. with aeration. The 50% inhibitory concentration (IC50) was determined by growing cells in microtiter plate wells and reading the optical density after overnight growth at 650 nm.

[1] = test system: Staphylococcus aureus RN 4222 (WT); test: MIC determination in wild type S. aureus; format: cell-based; details: for effect of pH 9 on sensitivity / effectiveness: change of pH from 7 to 9
Procedure: as §1

[2] = test system: Staphylococcus aureus KLE 820 (norA−); test: microbe, parasite or virus in culture; format: cell-based; details: for effect of addition of reserpine on sensitivity to drugs: norA mutant; for Sensitivity of norA- as compared to the wild type: in the absence of reserpine
Excerpt: Disruption of the norA gene. Chloramphenicol acetyltransferase (CAT) gene was isolated by digesting plasmid pLI50 (10) with Sau3A (New England Biolabs). The CAT gene was cloned into the BamHI site of plasmid pSP72 (Promega) to yield plasmid PCH22. Chromosomal DNA from S. aureus RN4220 was isolated according to the protocol of Qiagen, Inc. Part of the 1050 bp norA gene lacking a 80 bp N-terminus and a 20 bp C-terminus was PCR-amplified from chromosomal DNA using primer A:5′-[…]-[…] and primer B:5′-[…]. This fragment was cloned into the EcoRI/EcoRV site of PCH22 to yield plasmid PCH23. S. aureus were transformed by PCH23 using electroporation (11). Cells were plated on trypticase soy agar (TSA) with chloramphenicol. A transformant colony was picked after 24 hours of incubation at 37 C., regrown, plated on CAM medium and a large colony was picked for further work.
as §1

[3] = Staphylococcus aureus, pH 7, read-out: MIC
[4] = Staphylococcus aureus, pH 9, read-out: MIC
[5] = Staphylococcus aureus, RN 4222 (WT), pH 7.2, read-out: MIC
[6] = Staphylococcus aureus, pH 7.2, KLE 820 (norA−), pH 7.2
[7] = Staphylococcus aureus, pH 9, KLE 820 (norA−), pH 9
[8] = RN 4222 (WT), +R (20 μg/mL reserpine)
[9] = KLE 820 (norA−), +R (20 μg/mL reserpine)
[10] = RN 4222 (WT), −R (no reserpine)
[11] = KLE 820 (norA−), −R (no reserpine)

`COc1cc2c(cc1OC)-c1cc3ccc(OC)c(OC)c3c[n+]1CC2` [Palmatine] was tested, and the “substrate of MDR pumps” value (S. aureus; cationic plant antimicrobial alkaloids) was “good substrates of MDR pumps”, the MIC (S. aureus; pH 7) was 100 µg/mL and the MIC (S. aureus; pH 7 + I (10 μg/mL)) was 1.6 µg/mL. The “Potentiation factor (pH 7/(pH 9 + I))” value (S. aureus) was 1,250, the MIC (S. aureus; pH 9) was 25 µg/mL and the MIC (S. aureus; pH 9 + I) was 0.08 µg/mL. It also gave an MIC ([1]; RN 4222 (WT), pH 7.2) of 200 µg/mL, an MIC ([1]; RN 4222 (WT), pH 9) of 12.5 µg/mL and an MIC ([2]; KLE 820 (norA−), pH 7.2) of 50 µg/mL. For the same compound, the MIC ([2]; KLE 820 (norA−), pH 9) was 0.78 µg/mL and the “substrate of NorA” value ([2]; based on comparison of MIC from wild type and norA−) was “substrates of NorA”.
In the case of `N=C(N)c1ccc(OCCCCCOc2ccc(C(=N)N)cc2)cc1` [Pentamidine], the MIC (S. aureus; [3]) is reported as 10 µg/mL (≈ 29.4 µM), the MIC (S. aureus; [4]) is reported as 0.3 µg/mL (≈ 0.881 µM) and the MIC (S. aureus; pH 7 + I (10 μg/mL)) is reported as 0.33 µg/mL. The “Potentiation factor (pH 7/(pH 9 + I))” value (S. aureus) was 500, the MIC (S. aureus; pH 9 + I) was 0.02 µg/mL and the MIC ([1]; Staphylococcus aureus, pH 9) was 0.312 µg/mL (≈ 0.918 µM). For the same compound, the MIC [1, 5] was 10 µg/mL (≈ 29.4 µM), the “effect of pH 9 on sensitivity / effectiveness” value [1] was “significantly increased the effectiveness” and the MIC [2, 6] was 0.312 µg/mL (≈ 0.918 µM). For the same compound, the MIC [2, 7] was 0.0097 µg/mL (≈ 0.0285 µM), the MIC ([2]; Staphylococcus aureus, pH 9, pH 9 and norA mutation) was 0.01 µg/mL (≈ 0.0294 µM) and the “increase in sensitivity, pH 9 combined with norA mutation” value ([2]; norA− at pH 9 vs wild type at neutral pH) was 1,000 fold. For the same compound, the “increase in sensitivity by norA mutation” value ([2]; norA− vs wild type) was 30 fold and 33 fold.
In the case of `COc1ccc(C[C@H](N)C(=O)N[C@H]2[C@@H](O)[C@H](n3cnc4c(N(C)C)ncnc43)O[C@@H]2CO)cc1` [Puromycin], the MIC [1, 5] is reported as 20 µg/mL (≈ 42.4 µM), the MIC ([1]; Staphylococcus aureus, RN 4222 (WT), pH 9, read-out: MIC) is reported as 2.5 µg/mL (≈ 5.3 µM) and the “Sensitivity norA− at pH 9 vs. WT at pH 7.2” value [2] is reported as 8.
In the case of `COC(=O)[C@H]1[C@H]2C[C@@H]3c4[nH]c5cc(OC)ccc5c4CCN3C[C@H]2C[C@@H](OC(=O)c2cc(OC)c(OC)c(OC)c2)[C@@H]1OC` [Reserpine], the “effect of addition of reserpine on sensitivity to drugs” value (shortened to “effect of addition of reserpine”) ([1]; wild type) is reported as “increased the sensitivity of the wild type to drugs”, the “effect of addition of reserpine” value [2] is reported as “virtually no effect” and the “effect of addition of reserpine” value ([2]; listed as Reserpin) is reported as “failed to further increase sensitivity”.
With `C[n+]1cc2c3c(ccc2c2ccc4cc5c(cc4c21)OCO5)OCO3` [Sanguinarine] the MIC (S. aureus; [3]) was 2.5 µg/mL, the MIC (S. aureus; [4]) was 1.25 µg/mL and the “potentiation by high pH and MDR inhibitor” value (S. aureus; high pH combined with MDR inhibitor / MDR inactivation) was “approximately 100 fold”. The MIC (S. aureus; pH 7 + I (10 μg/mL)) was 0.67 µg/mL, the Ratio (S. aureus; pH 7 vs pH 7 + I) was 3.7 and the “Potentiation factor (pH 7/(pH 9 + I))” value (S. aureus) was 16.6. For the same compound, the MIC (S. aureus; pH 9 + I) was 0.15 µg/mL and the Ratio (S. aureus; pH 9 vs pH 9 + I) was 8.3.
`[Br-].c1ccc([P+](c2ccccc2)(c2ccccc2)c2ccccc2)cc1` [TPP, tetraphenylphosphonium bromide] showed an MIC [1, 8] of 7.8 µg/mL, an MIC ([1]; Staphylococcus aureus) of 15.6 µg/mL and an MIC ([1]; Staphylococcus aureus, pH 7.2) of 15.6 µg/mL. The MIC ([1]; Staphylococcus aureus, pH 9) was 0.48 µg/mL, the MIC [2, 9] was 1.9 µg/mL and the MIC ([2]; Staphylococcus aureus, KLE 820 (norA−), −R (no reserpine)) was 1.9 µg/mL. The MIC [2, 6] was 1.98 µg/mL, the MIC [2, 7] was 0.12 µg/mL and the “Sensitivity of norA- as compared to the wild type” value [2] was 8. The “Sensitivity norA− at pH 9 vs. WT at pH 7.2” value [2] was 130.
`CN(C)[C@@H]1C(O)=C(C(N)=O)C(=O)[C@@]2(O)C(O)=C3C(=O)c4c(O)cccc4[C@@](C)(O)[C@H]3C[C@@H]12` [Tetracycline] was tested, and the MIC ([1]; Staphylococcus aureus, RN 4222 (WT), −R (no reserpine), read-out: MIC) was 0.097 µg/mL (≈ 0.218 µM) and the “Sensitivity of norA- as compared to the wild type” value [2] was 1.
`CN[C@H](CC(C)C)C(=O)N[C@H]1C(=O)N[C@@H](CC(N)=O)C(=O)N[C@H]2C(=O)N[C@H]3C(=O)N[C@H](C(=O)N[C@H](C(=O)O)c4cc(O)cc(O)c4-c4cc3ccc4O)[C@H](O)c3ccc(c(Cl)c3)Oc3cc2cc(c3O[C@@H]2O[C@H](CO)[C@@H](O)[C@H](O)[C@H]2O[C@H]2C[C@](C)(N)[C@H](O)[C@H](C)O2)Oc2ccc(cc2Cl)[C@H]1O` [Vancomycin] was tested, and the MIC ([1]; Staphylococcus aureus) was 1.5 µg/mL (≈ 1.04 µM), the MIC ([2]; Staphylococcus aureus) was 1.5 µg/mL (≈ 1.04 µM) and the “Sensitivity of norA- as compared to the wild type” value [2] was 1.
In the case of Acriflavine, the MIC [1, 8] is reported as 10 µg/mL, the MIC [1, 10] is reported as 20 µg/mL and the MIC [2, 9] is reported as 2.5 µg/mL. For the same compound, the MIC [2, 11] was 2.5 µg/mL and the “Sensitivity of norA- as compared to the wild type” value [2] was 8.
Work on Benzalkonium Chloride yielded an MIC (S. aureus; pH 7) of 0.67 µg/mL, an MIC (S. aureus; pH 7 + I (10 μg/mL)) of 0.08 µg/mL and a Ratio (S. aureus; pH 7 vs pH 7 + I) of 8.3. The “Potentiation factor (pH 7/(pH 9 + I))” value (S. aureus) was 134, the MIC (S. aureus; pH 9) was 0.16 µg/mL and the MIC (S. aureus; pH 9 + I) was less than 0.005 µg/mL. For the same compound, the Ratio (S. aureus; pH 9 vs pH 9 + I) was 32, the MIC ([1]; RN 4222 (WT), pH 7.2) was 0.67 µg/mL and the MIC ([1]; RN 4222 (WT), pH 9) was 0.08 µg/mL. For the same compound, the “effect of pH 9 on sensitivity / effectiveness” value [1] was “significantly increased the effectiveness”, the MIC ([2]; KLE 820 (norA−), pH 7.2) was 0.16 µg/mL and the MIC ([2]; KLE 820 (norA−), pH 9) was 0.0104 µg/mL. For the same compound, the “Sensitivity norA− at pH 9 vs. WT at pH 7.2” value [2] was 64.
In the case of Gentamycin, the MIC [1, 10] is reported as 0.62 µg/mL, the MIC [2, 11] is reported as 0.62 µg/mL and the “Sensitivity of norA- as compared to the wild type” value [2] is reported as 1.
